The record followed here is patent publication US20120258922A1, “S[…] LOW-DENSITY L[…]” (Seminis Vegetable Seeds, Inc., priority 2011, published 2012).

Read-outs that look alike come from different tables or passages of the source.

The subject of test [1] is human monocyte-derived macrophages (HMDM). The test can be described thus: Macrophage-mediated LDL oxidation in HMDM (oxidized LDL by ELISA and/or TBARS). It is filed as cell-based. The following applies: for concentrations that significantly inhibit the oxidation of LDL: agent alone, 100 μg/ml LDL, p<0.01 compared to LDL control (FIG. 1, FIG. 2); for concentrations that significantly inhibit the oxidation of LDL / maximum inhibition of LDL oxidation: HMDM; for maximum inhibition of LDL oxidation: each agent individually, dose-dependent, compared to the LDL control, 100 μg/ml LDL (FIG. 1, FIG. 2); for IC50: α-tocopherol alone. The protocol:
Raw broccoli extracts (“BE” or “B. Extract”) were prepared from four hybrids. […] 50 grams of extract were mixed with equal parts 50mM MES buffer pH 6.0 solution. Samples were blended for approximately 1 minute until homogeneous then maintained at room temperature for 10 min. Filtrates from samples were diluted 1:40 with 50 mM MES buffer for the assay. […] Assays with the broccoli extracts were performed as described above.

The subject of the next test is NQO1. In words: Inhibition of LDL oxidation in HMDM with SiNQO1 silencing. The conditions noted are these: 100 μg/ml LDL (FIG. 12).
The test system of a further test is quinone reductase. The conditions noted are these: for QUINONE REDUCTASE ACTIVITY, Expt. 1 / QUINONE REDUCTASE ACTIVITY, Expt. 2 / QUINONE REDUCTASE ACTIVITY, Expt. 3 / QUINONE REDUCTASE ACTIVITY, Average: HMDM + LDL; for QUINONE REDUCTASE ACTIVITY, Average: average of Expt. 1-3; for quinone reductase activity (in words): each agent individually, LDL-treated HMDM (Table 1, FIGS. 10A,B).

For test [2], the system named is human monocyte-derived macrophages (HMDM). The following applies: each agent individually, at lower doses; LDL-depleted HMDM (FIGS. 8, 9).
Description: (§1) Blood was drawn and collected from healthy human volunteers, and LDL was isolated by density gradient centrifugation following methods known to one of ordinary skill in the art (e.g., Napolitano et al., Int J Biochem Cell Biol, 35:1127-43, 2002). Monocytes were also isolated from the blood and separated by Ficoll Hypaque centrifugation also according to known methods (e.g., Napolitano et al., Eur J Clin Invest, 35:482-90, 2005), followed by negative magnetic separation and maintained in culture with 20% autologous serum or F-10 medium for 5-7 days to differentiate into human monocyte-derived macrophages (HMDM). […] Following the pre-incubation step, LDL (100 μg/ml) was added and the cells were incubated for 24 hours. Supernatants were used for assessing oxidized LDL by ELISA (Mercodia) and/or TBARS (“Thiobarbituric Acid Reactive Substances”) as described previously (Devaraj et al., J Clin Invest 98:756, 1996). To assess the glutathione:glutathione disulfide (GSH:GSSG) ratio as an indicator of the redox poise of the cell, cells were dislodged by PBS-EDTA and were lysed (Pierce MPER) after a freeze-thaw cycle. After sonication and centrifugation, the cell pellet was stored at −80° C. until the relative levels of GSH and GSSG were assayed (Oxis Biochemicals). […]

Description for NQO1: as §1
Description for quinone reductase: Blood was drawn and collected from healthy human volunteers, and LDL was isolated by density gradient centrifugation following methods known to one of ordinary skill in the art (e.g., Napolitano et al., Int J Biochem Cell Biol, 35:1127-43, 2002). Monocytes were also isolated from the blood and separated by Ficoll Hypaque centrifugation also according to known methods (e.g., Napolitano et al., Eur J Clin Invest, 35:482-90, 2005), followed by negative magnetic separation and maintained in culture with 20% autologous serum or F-10 medium for 5-7 days to differentiate into human monocyte-derived macrophages (HMDM). […] Following the pre-incubation step, LDL (100 μg/ml) was added and the cells were incubated for 24 hours. Supernatants were used for assessing oxidized LDL by ELISA (Mercodia) and/or TBARS (“Thiobarbituric Acid Reactive Substances”) as described previously (Devaraj et al., J Clin Invest 98:756, 1996). To assess the glutathione:glutathione disulfide (GSH:GSSG) ratio as an indicator of the redox poise of the cell, cells were dislodged by PBS-EDTA and were lysed (Pierce MPER) after a freeze-thaw cycle. After sonication and centrifugation, the cell pellet was stored at −80° C. until the relative levels of GSH and GSSG were assayed (Oxis Biochemicals). Quinone reductase activity was assayed following the method described previously (J. Fahey et al., Methods in Enzymology 382, 243-258, 2004).

Broadly, the IC50 is the concentration that inhibits the measured activity by half. As to `Cc1c(C)c2c(c(C)c1O)CC[C@@](C)(CCC[C@H](C)CCC[C@H](C)CCCC(C)C)O2` [α-tocopherol], the “effect on LDL oxidation” value in test [1] (25 μM α-tocopherol individually applied (FIG. 11)) was “reduced LDL oxidation”. In addition, the “concentrations that significantly inhibit the oxidation of LDL” value in test [1] is “greater than 12.5 μM”. In addition, in test [1], the “maximum inhibition of LDL oxidation” value was found to be 58%. Besides, the IC50 was found to be 53.1 µM in test [1] (FIG. 5 experiment) and 23.6 µM in test [1] (FIG. 7 experiment). Also, the “effectiveness at inhibiting LDL oxidation after NQO1 silencing” value with NQO1 is listed as “reduced but not complete reduction of the effectiveness”. The “QUINONE REDUCTASE ACTIVITY, Expt. 1” value in the test with quinone reductase (6.25 μM α-tocopherol) is reported as 59.87 nmol/min/mg protein; with quinone reductase (12.5 μM α-tocopherol), 66.45 nmol/min/mg protein; in the test on quinone reductase (25 μM α-tocopherol), 68.98 nmol/min/mg protein; in the test on quinone reductase (50 μM α-tocopherol), 77.14 nmol/min/mg protein. Besides, the “QUINONE REDUCTASE ACTIVITY, Expt. 2” value in the test on quinone reductase (6.25 μM α-tocopherol) is listed as 68.97 nmol/min/mg protein; with quinone reductase (12.5 μM α-tocopherol) it was 69.47 nmol/min/mg protein; with quinone reductase (25 μM α-tocopherol) it was 64.56 nmol/min/mg protein; with quinone reductase (50 μM α-tocopherol), 74.19 nmol/min/mg protein. Also, the “QUINONE REDUCTASE ACTIVITY, Expt. 3” value with quinone reductase (6.25 μM α-tocopherol) is recorded as 41.12 nmol/min/mg protein; with quinone reductase (12.5 μM α-tocopherol) it was 42.25 nmol/min/mg protein; with quinone reductase (25 μM α-tocopherol), 65.14 nmol/min/mg protein; in the test with quinone reductase (50 μM α-tocopherol), 66.23 nmol/min/mg protein. The “QUINONE REDUCTASE ACTIVITY, Average” value in the test on quinone reductase (6.25 μM α-tocopherol) was 56.65 nmol/min/mg protein; with quinone reductase (12.5 μM α-tocopherol), 59.39 nmol/min/mg protein; in the test on quinone reductase (25 μM α-tocopherol), 66.23 nmol/min/mg protein; in the test on quinone reductase (50 μM α-tocopherol), 72.52 nmol/min/mg protein. For the same compound, the “quinone reductase activity (in words)” value in the test with quinone reductase is given as “only a modest effect”. For the same compound, the “GSH:GSSG ratio” value in test [2] is recorded as “restored the ratio to normal levels”.

Turning to `C[S+]([O-])CCCCN=C=S` (stereo not drawn) [sulforaphane], in test [1] (2 μM sulforaphane individually applied (FIG. 11)), the “effect on LDL oxidation” value is “reduced LDL oxidation”. Further, in test [1], the “concentrations that significantly inhibit the oxidation of LDL” value is listed as “greater than 2 μM” and the “maximum inhibition of LDL oxidation” value is 58%. Moreover, in the test on quinone reductase (2 μM sulforaphane), the “QUINONE REDUCTASE ACTIVITY, Expt. 1” value came to 151.23 nmol/min/mg protein; the “QUINONE REDUCTASE ACTIVITY, Expt. 2” value came out at 124.23 nmol/min/mg protein; the “QUINONE REDUCTASE ACTIVITY, Expt. 3” value came out at 104.56 nmol/min/mg protein; the “QUINONE REDUCTASE ACTIVITY, Average” value is on record as 126.6733 nmol/min/mg protein. Moreover, the “quinone reductase activity (in words)” value in the test with quinone reductase is recorded as “restored enzymatic activity to normal levels”. Besides, in test [2], the “GSH:GSSG ratio” value is reported as “restored the ratio to normal levels”.
